Source: US20240083910A1, “AMIDO-SUBSTITUTED PYRIDYL COMPOUNDS AND METHODS OF USE THEREOF FOR THE TREATMENT OF HERPESVIRUSES” (Merck Sharp & Dohme LLC, priority 2020, published 2024)

Tests used:
VZV = test: Viral qPCR assay, VZV; type: cell-based, varicella zoster virus; conditions: Human alphaherpesvirus 3, 72 h, MeWo or MRC5 cells, 0.04-0.1 pfu/cell, growth medium, viral genome copies by qPCR
How it was run: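 VZV strain Street at 0.04-0.1 pfu/cell infected MeWo or MRC5 cells added to 10-point, 3-fold compound dilutions; ~72 h at 37° C. Viral genome copies by TaqMan qPCR against plasmid standard curve, sometimes normalised to PPIA, scaled between uninfected and DMSO-infected controls; EC50 from 4-parameter fit.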

[1] = biological target: T1, Human cytomegalovirus DNA polymerase (Human cytomegalovirus, UniProt P08546); test: CMV polymerase assay (AlphaLISA); type: biochemical; conditions: HCMV polymerase 0.2 nM; 30 min pre-incubation; 60 min at 37° C.; read-out: CMV (IC50)
T1 construct: made in house; host or cells: SF21 insect cells (baculovirus vector)
T1 sequence (P08546 whole entry): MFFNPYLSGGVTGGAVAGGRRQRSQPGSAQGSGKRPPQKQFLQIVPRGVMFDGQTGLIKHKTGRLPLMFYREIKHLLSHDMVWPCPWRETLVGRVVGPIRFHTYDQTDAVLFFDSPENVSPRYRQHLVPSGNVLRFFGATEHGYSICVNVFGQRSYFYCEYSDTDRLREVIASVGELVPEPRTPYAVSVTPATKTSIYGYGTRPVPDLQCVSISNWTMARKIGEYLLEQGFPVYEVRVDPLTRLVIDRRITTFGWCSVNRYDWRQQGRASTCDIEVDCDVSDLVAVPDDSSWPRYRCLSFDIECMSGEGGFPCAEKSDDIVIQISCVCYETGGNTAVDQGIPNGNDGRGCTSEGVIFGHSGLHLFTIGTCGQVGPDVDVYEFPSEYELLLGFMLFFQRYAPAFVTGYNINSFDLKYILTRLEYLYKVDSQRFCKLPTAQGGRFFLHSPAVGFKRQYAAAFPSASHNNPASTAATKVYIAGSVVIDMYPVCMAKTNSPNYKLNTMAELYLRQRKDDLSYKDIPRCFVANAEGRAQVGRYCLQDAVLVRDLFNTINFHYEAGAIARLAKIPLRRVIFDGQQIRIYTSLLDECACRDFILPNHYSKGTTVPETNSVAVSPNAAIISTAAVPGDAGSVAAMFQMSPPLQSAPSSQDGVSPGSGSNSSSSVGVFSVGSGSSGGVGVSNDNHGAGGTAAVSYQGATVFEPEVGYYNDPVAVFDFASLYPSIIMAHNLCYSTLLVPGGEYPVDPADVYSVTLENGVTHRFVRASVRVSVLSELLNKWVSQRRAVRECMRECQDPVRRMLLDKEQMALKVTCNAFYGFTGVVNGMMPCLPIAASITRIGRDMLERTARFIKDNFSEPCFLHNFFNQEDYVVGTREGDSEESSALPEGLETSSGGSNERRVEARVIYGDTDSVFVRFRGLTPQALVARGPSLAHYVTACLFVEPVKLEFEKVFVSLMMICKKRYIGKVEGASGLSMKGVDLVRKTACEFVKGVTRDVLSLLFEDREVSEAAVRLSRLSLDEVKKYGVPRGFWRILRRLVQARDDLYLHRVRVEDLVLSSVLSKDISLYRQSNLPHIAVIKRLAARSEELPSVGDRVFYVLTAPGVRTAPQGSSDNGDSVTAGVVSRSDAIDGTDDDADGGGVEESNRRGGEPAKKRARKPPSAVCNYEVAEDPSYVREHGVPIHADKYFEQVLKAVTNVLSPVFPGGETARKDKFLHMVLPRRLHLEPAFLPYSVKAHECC
How it was run: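 Baculovirus-expressed polymerase (HCMV 0.2 nM, VZV 0.4 nM) preincubated 30 min with compound, then reacted 60 min at 37 °C with 1.6 nM DIG-primer/59-mer template and low-nM dNTPs including 0.8 nM biotin-dUTP. Incorporation detected by AlphaLISA; IC50 from a 4-parameter fit normalized to DMSO and pre-quenched controls.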

HCMV Strain AD169 = test: Viral qPCR assay, HCMV; type: cell-based, Human cytomegalovirus; conditions: Human betaherpesvirus 5, AD169, MRC5, 72 h, MRC-5 cells, 0.05-0.1 pfu/cell, growth media or 50% fetal bovine serum, viral genome copies by qPCR, read-out: CMV Cell (EC50)
How it was run: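 HCMV AD169 at 0.05-0.1 pfu/cell infected MRC-5 cells, added to 10-point 3-fold compound dilutions, in growth medium or medium with 50% FBS; ~72 h at 37°C. Viral genome copies by TaqMan qPCR against plasmid standard curve, normalized to DMSO and uninfected controls; EC50 from 4-parameter fit.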

HSV-1 Strain F = test: Viral qPCR assay, HSV-1; type: cell-based, Herpes Simplex Virus type 1; conditions: Human alphaherpesvirus 1, 72 h, Vero or MRC5 cells, 0.0005-0.004 pfu/cell, growth medium, viral genome copies by qPCR, read-out: HSV1 Cell (EC50)
How it was run: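 HSV-1 strain F at 0.0005–0.004 pfu/cell infected Vero or MRC5 cells, which were added to a 10-point 3-fold compound dilution and cultured ~72 h at 37 °C. Viral genomes in the lysates were quantified by TaqMan qPCR against a plasmid standard curve, in some runs normalized to cellular PPIA. EC50 came from a 4-parameter fit of % effect.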

[2] = biological target: T2, varicella zoster virus DNA polymerase (Varicella-zoster virus, UniProt P09252); test: VZV polymerase assay (AlphaLISA); type: biochemical; conditions: VZV polymerase 0.4 nM; 30 min pre-incubation; 60 min at 37° C.
T2 construct: made in house; host or cells: SF21 insect cells (baculovirus vector)
T2 sequence (P09252 whole entry): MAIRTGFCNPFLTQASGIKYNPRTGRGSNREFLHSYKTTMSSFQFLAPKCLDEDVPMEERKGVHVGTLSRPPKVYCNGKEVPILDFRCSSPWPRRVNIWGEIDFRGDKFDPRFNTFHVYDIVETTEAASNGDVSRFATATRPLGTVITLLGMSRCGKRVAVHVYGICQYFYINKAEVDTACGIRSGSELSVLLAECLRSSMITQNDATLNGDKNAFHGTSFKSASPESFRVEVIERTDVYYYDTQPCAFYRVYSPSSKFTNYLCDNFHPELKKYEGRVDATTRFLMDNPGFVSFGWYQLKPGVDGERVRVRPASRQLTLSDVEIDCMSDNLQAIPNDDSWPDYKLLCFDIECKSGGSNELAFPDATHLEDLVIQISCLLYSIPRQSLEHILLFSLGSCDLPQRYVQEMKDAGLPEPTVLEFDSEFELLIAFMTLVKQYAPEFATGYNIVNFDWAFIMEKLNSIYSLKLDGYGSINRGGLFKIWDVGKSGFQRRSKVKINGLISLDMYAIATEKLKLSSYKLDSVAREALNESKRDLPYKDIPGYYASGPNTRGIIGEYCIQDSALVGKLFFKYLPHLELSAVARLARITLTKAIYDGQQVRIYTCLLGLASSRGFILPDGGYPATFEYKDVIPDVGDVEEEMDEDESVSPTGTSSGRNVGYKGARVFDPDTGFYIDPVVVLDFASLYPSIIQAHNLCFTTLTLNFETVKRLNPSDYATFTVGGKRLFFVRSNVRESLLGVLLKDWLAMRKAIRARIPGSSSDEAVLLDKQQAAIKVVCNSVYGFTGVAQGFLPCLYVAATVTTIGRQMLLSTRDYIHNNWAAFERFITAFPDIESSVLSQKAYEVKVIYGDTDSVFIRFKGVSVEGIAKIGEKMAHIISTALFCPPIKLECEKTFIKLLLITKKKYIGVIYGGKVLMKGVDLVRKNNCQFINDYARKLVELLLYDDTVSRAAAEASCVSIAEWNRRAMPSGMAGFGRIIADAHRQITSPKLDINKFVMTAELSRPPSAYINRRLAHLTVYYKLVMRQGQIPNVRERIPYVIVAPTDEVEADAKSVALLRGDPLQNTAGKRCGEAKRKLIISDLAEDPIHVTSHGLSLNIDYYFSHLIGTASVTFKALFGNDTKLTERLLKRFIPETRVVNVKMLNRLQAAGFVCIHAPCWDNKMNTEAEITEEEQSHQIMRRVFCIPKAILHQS
Protocol: Human cytomegalovirus and varicella zoster virus DNA polymerases were expressed via baculovirus vector in SF21 cells and purified. Heterodimeric nucleic acid substrate used in the herpesvirus polymerase reactions was generated by annealing a 59-mer template to a 17-mer digoxigenin-labeled primer. Polymerase (HCMV final concentration of 0.2 nM; VZV final concentration of 0.4 nM) was combined with an inhibitor compound or DMSO in assay buffer (10 mM HEPES, pH 7.5, 25 mM KCl, 25 mM NaCl, 5 mM MgCl2, 5% glycerol, 0.67 mg/ml bovine serum albumin, and 1 mM tris(2-carboxyethyl)phosphine), and this mixture was pre-incubated for 30 minutes at room temperature in 384-well microtiter plates. The polymerization reaction was initiated by the addition of template/primer substrate (final concentration: 1.6 nM), and dNTPs (final concentration: 24 nM dCTP, 24 nMdGTP, 16 nM dATP, 16 nM dTTP, and 0.8 nM biotin-dUTP). After 60 min incubation at 37° C., reactions were terminated with quench buffer (25 mM HEPES pH 7.5, 100 mM NaCl, 0.25% Tween-20, 12 mM EDTA, and 1 mg/ml bovine serum albumin). Incorporation of biotinylated UTP was detected with 2.5-5 ug/ml anti-DIG AlphaLISA acceptor beads and 5-10 ug/ml streptavidin AlphaLISA donor beads (PerkinElmer). Compound effects were normalized to the window defined by the controls (DMSO only and pre-quenched wells) and were fit using a 4-parameter algorithm to report an IC50.

## COCCOc1nc(-c2cnn(C(F)F)c2)c(O[C@H]2CCN3C(=O)OC[C@@H]3C2)cc1C(=O)NCc1ccc(Cl)cc1 [Compound 85]
VZV
  EC50: 342 nM
[1]
  IC50: 15.6 nM
HCMV Strain AD169
  EC50: 187 nM
HSV-1 Strain F
  EC50: 143 nM
[2]
  IC50: 1.47 nM

## COc1nc(-c2cncnc2)c(O[C@H]2CCN3C(=O)OC[C@@H]3C2)cc1C(=O)NCc1ccc(Cl)cc1 [Compound 38]
VZV
  EC50: 150 nM
[1]
  IC50: 9.81 nM
HCMV Strain AD169
  EC50: 111 nM
HSV-1 Strain F
  EC50: 83.1 nM
[2]
  IC50: 5.86 nM

## COc1nc(N2CC(F)(F)C2)c(O[C@H]2CCN3C(=O)OC[C@@H]3C2)cc1C(=O)NCc1ccc(Cl)cc1 [Compound 65]
VZV
  EC50: 758 nM
[1]
  IC50: 16.4 nM
HCMV Strain AD169
  EC50: 376 nM
HSV-1 Strain F
  EC50: 877 nM
[2]
  IC50: 5.28 nM

## COc1nc(-c2cnc(C3CC3)o2)c(O[C@H]2CCN3C(=O)OC[C@@H]3C2)cc1C(=O)NCc1ccc(Cl)cc1 [Compound 10]
VZV
  EC50: 131 nM
[1]
  IC50: 11.3 nM
HCMV Strain AD169
  EC50: 134 nM
HSV-1 Strain F
  EC50: 150 nM
[2]
  IC50: 0.508 nM

## COc1nc(N2CC(C(C)(C)O)C2)c(O[C@H]2CCN3C(=O)OC[C@@H]3C2)cc1C(=O)NCc1ccc(Cl)cc1 [Compound 70]
VZV
  EC50: 409 nM
[1]
  IC50: 15 nM
HCMV Strain AD169
  EC50: 194 nM
HSV-1 Strain F
  EC50: 278 nM
[2]
  IC50: 14.5 nM

## COc1nc(-c2nnc(C3CC3)s2)c(O[C@H]2CCN3C(=O)OC[C@@H]3C2)cc1C(=O)NCc1ccc(Cl)cc1 [Compound 83]
VZV
  EC50: 110 nM
[1]
  IC50: 11.7 nM
HCMV Strain AD169
  EC50: 153 nM
HSV-1 Strain F
  EC50: 83.5 nM
[2]
  IC50: 6.05 nM

## COc1nc(-c2cnn(Cc3ccccn3)c2)c(O[C@H]2CCN3C(=O)OC[C@@H]3C2)cc1C(=O)NCc1ccc(Cl)cc1 [Compound 15]
VZV
  EC50: 355 nM
[1]
  IC50: 12 nM
HCMV Strain AD169
  EC50: 144 nM
HSV-1 Strain F
  EC50: 233 nM
[2]
  IC50: 12.9 nM

## COc1nc(-c2cnn(C3CC3)c2)c(O[C@H]2CCN3C(=O)OC[C@@H]3C2)cc1C(=O)NCc1ccc(Cl)cc1 [Compound 22]
VZV
  EC50: 129 nM
[1]
  IC50: 3.69 nM
HCMV Strain AD169
  EC50: 170 nM
HSV-1 Strain F
  EC50: 93 nM
[2]
  IC50: 4.84 nM

## COc1nc(-c2cnc(C)o2)c(O[C@H]2CCN3C(=O)OC[C@@H]3C2)cc1C(=O)NCc1ccc(Cl)cc1 [Compound 5]
VZV
  EC50: 107 nM
[1]
  IC50: 4.11 nM
HCMV Strain AD169
  EC50: 71.4 nM
HSV-1 Strain F
  EC50: 80.1 nM
[2]
  IC50: 0.161 nM

## COc1nc(-c2cccnc2)c(O[C@H]2CCN3C(=O)OC[C@@H]3C2)cc1C(=O)NCc1ccc(Cl)cc1 [Compound 40]
VZV
  EC50: 200 nM
[1]
  IC50: 15.9 nM
HCMV Strain AD169
  EC50: 206 nM
HSV-1 Strain F
  EC50: 123 nM
[2]
  IC50: 10.2 nM

## COc1nc(C)c(O[C@H]2CCN3C(=O)OC[C@@H]3C2)cc1C(=O)NCc1ccc(Cl)cc1 [Compound 8]
VZV
  EC50: 841 nM
[1]
  IC50: 37.9 nM
HCMV Strain AD169
  EC50: 415 nM
HSV-1 Strain F
  EC50: 866 nM
[2]
  IC50: 15 nM

## COc1nc(Br)c(O[C@H]2CCN3C(=O)OC[C@@H]3C2)cc1C(=O)NCc1ccc(Cl)cc1 [Int-3]
VZV
  EC50: 651 nM
[1]
  IC50: 55.9 nM
HCMV Strain AD169
  EC50: 822 nM
HSV-1 Strain F
  EC50: 832 nM
[2]
  IC50: 21.3 nM

## COc1nc(-c2cnco2)c(O[C@H]2CCN3C(=O)OC[C@@H]3C2)cc1C(=O)NCc1ccc(Cl)cc1 [Compound 6]
VZV
  EC50: 110 nM
[1]
  IC50: 1.05 nM
HCMV Strain AD169
  EC50: 77 nM
HSV-1 Strain F
  EC50: 87.5 nM
[2]
  IC50: 0.0674 nM
